From patent US6395256B1 (priority 1997, dated 2002)
pEC50: −log10 of the molar value. Where “and” joins values, the source holds several entries; their conditions need not be identical. Equal values may be shown once. Read-outs that look alike come from different tables or passages of the source.

Columns and labels:
reduced SAH hydrolase = molecular target: T1, reduced SAH hydrolase (Bos taurus, UniProt Q3MHL4); assay: 3H-adenosine displacement using reduced SAH hydrolase; format: binding, bovine
T1 construct: SAH hydrolase is purified with classical chromatographical methods to homogeneity from organs e.g. from bovine kidney; from tissue; host or cells: bovine kidney
T1 sequence (Q3MHL4 2-432 limits assumed): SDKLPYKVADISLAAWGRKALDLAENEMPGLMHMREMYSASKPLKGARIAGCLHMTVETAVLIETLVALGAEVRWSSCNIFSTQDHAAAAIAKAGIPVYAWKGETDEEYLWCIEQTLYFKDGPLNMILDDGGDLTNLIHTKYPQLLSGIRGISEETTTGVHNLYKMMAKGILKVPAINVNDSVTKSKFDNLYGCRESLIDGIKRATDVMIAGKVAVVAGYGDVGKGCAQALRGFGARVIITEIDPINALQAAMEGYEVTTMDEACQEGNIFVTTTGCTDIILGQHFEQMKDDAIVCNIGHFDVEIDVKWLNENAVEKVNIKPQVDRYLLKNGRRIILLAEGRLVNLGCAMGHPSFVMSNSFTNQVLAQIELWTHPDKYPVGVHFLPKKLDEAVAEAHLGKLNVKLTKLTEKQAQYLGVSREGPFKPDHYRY
Protocol: 100 μl reduced SAH hydrolase (1 μg/300 μl)
50 μl buffer—20 mM Tris, 40 mM Hepes pH 7.0
Therefore the samples are incubated over night. The assay mixture is separated through nitrocellulose filters with a filtration equipment.

active SAH hydrolase = molecular target: T2, active SAH hydrolase (Bos taurus, UniProt Q3MHL4); assay: 3H-adenosine displacement using active SAH hydrolase; format: binding, bovine
T2 construct: SAH hydrolase is purified with classical chromatographical methods to homogeneity from organs e.g. from bovine kidney; from tissue; host or cells: bovine kidney
T2 sequence (Q3MHL4 2-432 limits assumed): T1 sequence (Q3MHL4 2-432 limits assumed)
Protocol: SAH hydrolase is purified with classical chromatographical methods to homogeneity from organs e.g. from bovine kidney. Fresh bovine kidney (450 g), obtained from the local slaughterhouse were homogenized in two volumes of 50 mM potassium phosphate buffer pH 7.0, 1 mM DTT, 1 mM EDTA and 10 mM PMSF. The homogenate was centrifuged at 20000×g for 60 min. […] After centrifugation at 20000×g for 30 min the precipitate was disolved in 300-400 ml 20 mM Tris/HCl pH 7.5, 1 mM DTT and 1 mM EDTA and dialyzed against the same buffer.

[1] = reduced SAH hydrolase, read-out: EC50 values of 3H-adenosine displacement, reduced SAH hydrolase
[2] = active SAH hydrolase, read-out: EC50 values of 3H-adenosine displacement, active SAH hydrolase

| Compound | pEC50 (reduced SAH hydrolase; [1]) | pEC50 (active SAH hydrolase; [2]) | pEC50 (reduced SAH hydrolase) | pEC50 (active SAH hydrolase) |
| --- | --- | --- | --- | --- |
| Nc1ncnc2c1ncn2[C@H]1C[C@H](O)[C@@H](CO)O1 [2′-deoxyadenosine] | 6.20 | 7.03 |  |  |
| Nc1ncnc2c1ncn2[C@@H]1O[C@H](COP(=O)(O)OP(=O)(O)O)[C@@H](O)[C@H]1O [ADP] | < 4.00 | 5.00 |  |  |
| Nc1ncnc2c1ncn2[C@@H]1O[C@H](COP(=O)(O)O)[C@@H](O)[C@H]1O [AMP] | 4.00 and < 4.00 | 5.00 |  |  |
| CCNC(=O)[C@H]1O[C@@H](n2cnc3c(N)ncnc32)[C@H](O)[C@@H]1O [NECA] | < 4.00 | 6.62 |  |  |
| Nc1ncnc2c1ncn2[C@@H]1O[C@H](CSCC[C@H](N)C(=O)O)[C@@H](O)[C@H]1O [SAH, S-adenosylhomocysteine] | 6.40 | 6.61 |  |  |
| Nc1ncnc2nc[nH]c12 [adenine] | < 4.00 | 4.94 |  |  |
| N[C@@H](CCS)C(=O)O [homocysteine] | 5.30 | 5.30 |  |  |
| OC[C@H]1O[C@@H](n2cnc3c(O)ncnc32)[C@H](O)[C@@H]1O [inosine] | 5.00 | 5.00 |  |  |
| Cn1c(=O)c2[nH]cnc2n(C)c1=O [theophylline] |  |  | < 4.00 | < 4.00 |
| diadenosine-dialdehyde | 5.00 | 6.74 |  |  |
